Assay [1] deals with Laodelphax striatellus. Put plainly: Insecticidal testing against small brown planthopper. The format is in vivo. The following applies: 144 h, concentration 100 ppm, sprayed rice seedlings, after 6 days, read-out: pesticidal rate. A digest of the protocol:
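Acetone solution of compound at a set concentration sprayed onto rice seedlings, air-dried, then exposed to 10 planthoppers (one group). Held at 25° C; survival rate recorded after 6 days.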

Assay [2] relates to Ixodes ricinus. Put plainly: In vitro contact test with adult hard ticks (Ixodes ricinus). The settings on record: read-out: acaricidal activity; for pest or weed control at 5 µg/cm2, 5 µg/cm2: dose 5 μg/cm^2, 48 h. In a few lines: (§1)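 Adult R. sanguineus, I. ricinus, D. variabilis or A. americanum nymphs exposed in glass vials coated with compound from acetone (900 ppm gives 5 μg/cm^2). Held 48 h at room temperature (R. sanguineus) or 21° C., 85% rel. hum.; then heated at 45-50° C. ≤5 min, motionless or uncoordinated ticks scored dead/moribund.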

The test system of assay [3] is Amblyomma americanum. Put plainly: In vitro contact test with hard ticks (Amblyomma americanum nymphs). The following applies: read-out: acaricidal activity; for pest or weed control at 0.2 µg/cm2, 0.2 µg/cm2: dose 0.2 μg/cm^2, 48 h; for pest or weed control at 1 µg/cm2, 1 µg/cm2: dose 1 μg/cm^2, 48 h. In a few lines: as §1
For assay [4], the system named is Dermacentor variabilis. Description: In vitro contact test with adult hard ticks (Dermacentor variabilis). The settings on record: read-out: acaricidal activity; for pest or weed control at 1 µg/cm2, 1 µg/cm2: dose 1 μg/cm^2, 48 h. In a few lines: as §1
Assay [5] concerns Ctenocephalides felis. Put plainly: Ctenocephalides felis in-vitro feeding test with fleas (CTECFE oral). The settings on record: 48 hours, read-out: insecticidal feeding activity; for pest or weed control at 0.16 ppm: dose 0.16 ppm in citrated cattle blood; for pest or weed control at 0.8 ppm: dose 0.8 ppm in citrated cattle blood; for pest or weed control at 4 ppm: dose 4 ppm in citrated cattle blood. A digest of the protocol:
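About 20 unfed adult cat fleas fed through parafilm on citrated cattle blood containing test substance (DMSO solution diluted in blood), held at about 37° C. Kill rate scored after 48 hours, 100% meaning all fleas dead.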

Assay [6] relates to Rhipicephalus (Boophilus) microplus. Put plainly: In vitro injection test with Rhipicephalus (Boophilus) microplus (BOOPMI Inj). The following applies: 168 h, laid fertile eggs after 7 days, read-out: acaricidal activity; for pest or weed control at 32 ng: dose 0.032 μg/animal injected; for pest or weed control at 0.00016 mg: dose 0.16 μg/animal injected; for pest or weed control at 0.0008 mg: dose 0.8 μg/animal injected. In a few lines:
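Test substance in DMSO; 1 μl injected into abdomen of each of 5 engorged adult female ticks, then held at 28° C., 85% rel. hum. Activity scored after 7 days from laying of fertile eggs: 100% = no eggs or all infertile, 0% = all eggs fertile.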

Assay [7] concerns Ctenocephalides felis. Put plainly: In vitro contact test with fleas. The following applies: read-out: insecticidal activity; for pest or weed control at 0.2 µg/cm2, 0.2 µg/cm2: dose 0.2 μg/cm^2, dead or moribund fleas after 48 h; for pest or weed control at 1 µg/cm2, 1 µg/cm2: dose 1 μg/cm^2, dead or moribund fleas after 48 h. In a few lines:
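Adult male and female cat fleas (5-10 per tube) placed in glass tubes coated with compound from acetone solution (900 ppm gives 5 μg/cm^2), kept at room temperature and ambient humidity. After 48 h, motionless or uncoordinated fleas scored dead or moribund; activity expressed as % dead or moribund.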

The subject of assay [8] is Rhipicephalus sanguineus. Put plainly: In vitro contact test with adult hard ticks (Rhipicephalus sanguineus). The following applies: read-out: acaricidal activity; for pest or weed control at 0.04 µg/cm2, 0.04 µg/cm2: dose 0.04 μg/cm^2, 48 h; for pest or weed control at 0.2 µg/cm2, 0.2 µg/cm2: dose 0.2 μg/cm^2, 48 h; for pest or weed control at 1 µg/cm2, 1 µg/cm2: dose 1 μg/cm^2, 48 h. A digest of the protocol: as §1

The subject of assay [9] is Plutella xylostella. Description: Insecticidal testing against diamondback moth. The format is in vivo. The following applies: foliar, 144 h, concentration 100 ppm, cabbage leaf dip, third-stage larvae, after 6 days, read-out: pesticidal rate. An excerpt:
Insecticidal Testing Against Diamondback Moth (Plutella xylostella)

For assay [10], the system named is Spodoptera litura. Description: Insecticidal testing against common cutworm. The format is in vivo. The settings on record: foliar, 144 h, concentration 100 ppm, cabbage leaf dip, second-stage larvae, after 6 days, read-out: pesticidal rate. An excerpt:
Insecticidal Testing Against Common Cutworm (Spodoptera litura)

Structures are written as SMILES.

Regarding `O=C(Nc1cccc(C(=O)Nc2c(Br)cc(C(F)(C(F)(F)F)C(F)(F)C(F)(F)F)cc2OC(F)(F)F)c1F)c1ccc(F)cc1` (stereo not shown) [Compound 95], the pest or weed control at 100 ppm in [1], in assay [9] and in assay [10] was at least 70% throughout. In addition, the pest or weed control at 0.2 µg/cm2, 0.2 µg/cm2 was 90% in assay [2] (dose 0.2 μg/cm^2, 48 h); 90% in [3]; 95% in assay [7]; 90% in [8]. Also, the pest or weed control at 1 µg/cm2, 1 µg/cm2 came out at 90% in assay [2] (dose 1 μg/cm^2, 48 h); 90% in [3]; 90% in assay [4]; 95% in assay [7]; 90% in [8]. Also, in [2], the pest or weed control at 5 µg/cm2, 5 µg/cm2 turned out to be 90%. For the same compound, the pest or weed control at 0.04 µg/cm2, 0.04 µg/cm2 in assay [3] (dose 0.04 μg/cm^2, 48 h) is 90%; in assay [8], 90%. In [5], the pest or weed control at 0.16 ppm is 95%. The pest or weed control at 0.8 ppm in assay [5] is 95%. The pest or weed control at 4 ppm in assay [5] was found to be 95%. For the same compound, the pest or weed control at 32 ng in [6] was 100%. Besides, the pest or weed control at 0.00016 mg in assay [6] came to 100%. Further, the pest or weed control at 0.0008 mg in assay [6] came to 100%.

Consider `O=C(Nc1cccc(C(=O)Nc2c(I)cc(C(F)(C(F)(F)F)C(F)(F)C(F)(F)F)cc2C(F)(F)F)c1F)c1ccc(F)nc1` (stereo not shown) [Compound 82], for which the pest or weed control at 100 ppm in [1], in assay [9] and in assay [10] was at least 70% each time. Moreover, the pest or weed control at 5 µg/cm2, 5 µg/cm2 in assay [2] came out at 90%. The pest or weed control at 0.2 µg/cm2, 0.2 µg/cm2 in assay [3] was found to be 90%; in assay [4] (dose 0.2 μg/cm^2, 48 h) it was 90%; in [7], 95%; in assay [8] it was 90%. Moreover, the pest or weed control at 1 µg/cm2, 1 µg/cm2 in assay [3] came to 90%; in assay [4], 90%; in assay [7] it was 95%; in assay [8], 90%. The pest or weed control at 0.04 µg/cm2, 0.04 µg/cm2 amounted to 90% in assay [4] (dose 0.04 μg/cm^2, 48 h); 95% in assay [7] (dose 0.04 μg/cm^2, dead or moribund fleas after 48 h); 90% in [8]. Further, the pest or weed control at 0.16 ppm in assay [5] is 95%. Moreover, in [5], the pest or weed control at 0.8 ppm was determined as 95%. The pest or weed control at 4 ppm in assay [5] is 95%. Further, in assay [6] (dose 0.0064 μg/animal injected), the pest or weed control at 6.4 ng is 100%. Further, in assay [6], the pest or weed control at 32 ng was 100%. Besides, in assay [6], the pest or weed control at 0.00016 mg stood at 100%. For the same compound, the pest or weed control at 0.0008 mg in [6] is 100%.

These data come from US11696913B2, “Prolonged ectoparasite-controlling agent for animal” (MITSUI CHEMICALS AGRO, INC., priority 2017, dated 2023).
